# Reference: PubChem BioAssay AID1996
# Details: buffer; pH 7.4; 200.0 µM
row,Compound,solubility kinetic [µg/mL]
1,Cc1ncc([N+](=O)[O-])n1CCOC(=O)C12CC3CC(CC(C3)C1)C2,5.3
2,CC(NC(=O)c1ccc([N+](=O)[O-])o1)C1CC2CCC1C2 (centres undefined),> 41.7
3,CN(C(=O)COC(=O)c1ccc[nH]c1=O)C1CCCCC1,> 43.9
4,CC(C)N(Cc1ccccc1)S(=O)(=O)c1ccc(F)cc1,12
5,O=C(COC(=O)c1ccccc1Br)NCC1CCCCC1,38.1
6,N#C/C(=C\Nc1ccc(Cl)cn1)S(=O)(=O)c1ccccn1,3.7
7,Cc1ccccc1-c1noc(C(C)NC(=O)c2ccco2)n1 (centres undefined),37.5
8,Nc1ccccc1C(=O)N1CCC(O)(c2ccc(Cl)cc2)CC1,23.9
9,Cn1cnc(S(=O)(=O)Nc2ccccc2N2CCOCC2)c1,> 48.4
10,Oc1ccc(-c2csc(Nc3ncccn3)n2)cc1,1
11,CCN1CCN(CC(=O)Nc2cc(S(=O)(=O)N(CC)c3ccccc3)ccc2Cl)CC1.Cl,> 75.2
12,O=c1[nH]c(/C=C\c2cccc(Cl)c2)nc(O)c1[N+](=O)[O-],> 44.1
13,Cc1cccc(Nc2ccc([N+](=O)[O-])cn2)c1,13.4
14,Cc1ccc(C)c(NC(=O)CN(C)C(=O)/C=C/c2ccco2)c1,> 46.9
15,Fc1ccc(CNC(=S)NCc2cccc(Cl)c2)cc1,27.2
16,COc1ccc(C(=O)Nc2ccc(-c3n[nH]c(=S)o3)cc2)cc1,> 49.1
17,O=C(Cn1c(=O)oc2cccnc21)Nc1ccc(C(F)(F)F)cc1,8.9
18,COc1ccc(CNC(=O)Cn2ccc([N+](=O)[O-])n2)cc1OC,> 48
19,Cc1ccc(C2Nc3cccc4cccc(c34)N2)cc1,4.7
20,CCOC(=O)C(NC(C)=O)C(O)c1ccc([N+](=O)[O-])cc1 (centres undefined),43.2
21,CCOC(=O)c1nc(Nc2cccc(C)c2)c2ccccc2n1,10.8
22,COc1cc(C(=O)Nc2nnc(C)s2)c([N+](=O)[O-])cc1OC,> 48.6
23,COc1ccc(N2C(=O)NC3CC2(C)Oc2ccccc23)cc1 (centres undefined),44.4
24,COc1ccc(NC(=O)COC(=O)CCc2ccc(S(=O)(=O)N3CCOCC3)cc2)c(OC)c1,11

row,Compound,solubility kinetic [µg/mL]
1,O=C1C2C3C=CC(C3)C2C(=O)N1c1cccc2ccccc12 (centres undefined),22.9
2,Cc1ccc([N+](=O)[O-])c(OCCCN2C(=O)NC(C)(C)C2=O)c1,> 48.2
3,Cc1nc2ccccc2n1Cc1ccccc1Br,26
4,Cn1c(=O)oc2cc(NC(=O)CCl)ccc21,24.2
5,CC(C)Cc1ccc(C(C)C(=O)Nc2ncccn2)cc1 (centres undefined),35.9
6,Cc1cc(CNC(=O)Cc2ccccc2)c2ccccc2n1,> 43.6
7,CCCCc1nc(Cl)c(C#N)c2c1CCC2,3.4
8,CC(C)Cn1c(=O)c2c(nc3n2CCS3)n(C)c1=O,> 42.1
9,Nc1nnc(CC(=O)Nc2ccccc2)s1,> 35.1
10,Cc1ccc(-c2cc(C(=O)N3CCCCCC3)no2)cc1,1.3
11,CCOC(=O)CN1C(=O)SC(Nc2ccc(C)cc2)C1=O (centres undefined),> 46.3
12,CN(C(=O)COC(=O)c1cccc(Cl)c1)C1CCS(=O)(=O)C1 (centres undefined),> 51.9
13,Cc1ccc(Cl)cc1NC(=O)C1CC(=O)N(C(C)C)C1 (centres undefined),34.7
14,COc1ccc(C(=O)N2CCC(C(=O)c3c(C)cc(C)cc3C)CC2)cc1,31.4
15,N/C(=N\OC(=O)CCCc1ccccc1)c1ccccc1,7.2
16,CC1SCC(=O)N(CC(=O)NC2CCCCC2)C1=O (centres undefined),37.9
17,COC(=O)c1ccccc1NC(=O)Nc1ccc(C)cn1,> 42.8
18,O=C1CSC(c2ccccc2F)N1 (centres undefined),> 29.6
19,Cc1cccc(NC(=O)C2CCN(C(=O)c3ccco3)CC2)c1C,> 49
20,CC1(C(=O)N2CCN(c3ccccc3)CC2)CC1(Cl)Cl (centres undefined),46.8
21,O=C(CN1CCCCCC1)Nc1ccccc1[N+](=O)[O-],14
22,CCN(CC)c1ccc(CNc2ccc3c(c2)ncn3CC)cc1,21.9
23,O=C1c2oc3ccccc3c(=O)c2C(c2ccc(O)cc2)N1c1nccs1 (centres undefined),0.8
24,O=C(CC1CCCCC1)NCc1ccccc1Cl,2.9

row,Compound,solubility kinetic [µg/mL]
1,O=C(Nc1cccc(O)c1)c1ccccc1[N+](=O)[O-],36.3
2,Cc1onc(-c2ccccc2)c1C(=O)NCc1ccc(F)cc1,7
3,CCOC(=O)c1cnc(-c2ccccc2)nc1Oc1ccc(OC)cc1,< 0.4
4,Cc1ccc(NC(=O)C/C(N)=N/OC(=O)c2ccccc2)cc1,2.2
5,COc1cccc(OC)c1C(=O)Nc1ccccc1Sc1ccccc1,3.6
6,CN1C(=O)c2ccccc2C(O)c2ccccc21 (centres undefined),31.8
7,COc1ccccc1NC(=S)NC(=O)/C=C/c1cccs1,0.4
8,CN(c1ccc(C(=O)NC2CCCC2)cc1)S(=O)(=O)c1ccccc1,48.9
9,Cc1cc(C)c(C(=O)CN2C(=O)NC3(CCCCC3)C2=O)cc1C,2
10,Cc1ccccc1NC(=O)CCN1CCN(CCO)CC1,42.4
11,CC1(/[N+]([O-])=C\c2ccccc2F)CCCCC1=O (centres undefined),> 37.4
12,O=C(CNC(=O)c1ccc(Br)cc1)NC1CC1,> 44.6
13,O=C(NC1CCCCC1)C(=S)N1CCOCC1,> 38.5
14,CN(C)c1ccc(CC2C(=O)Nc3ccccc32)cc1 (centres undefined),37.3
15,Cc1cccc(-n2c(C)c(-c3ccccc3)[nH]c2=S)c1,4.5
16,COc1ccc(OCC2CCNCC2)cc1.Cl,36.5
17,CCc1cccc(OCC2Cn3c(nc4c3c(=O)n(C)c(=O)n4C)O2)c1 (centres undefined),28.2
18,CC(C)[C@H](NC(=O)c1ccccc1Cl)C(=O)Nc1ccc(S(=O)(=O)Nc2nccs2)cc1,14.6
19,OC(CN1CCN(c2ccc(C(F)(F)F)cn2)CC1)c1ccccc1 (centres undefined),1.8
20,CN1CCN(C(=S)c2cn(Cc3ccccc3)c3ccccc23)CC1,30.8
21,c1ccc2c(OCCCCN3CCCC3)cccc2c1,40.1
22,Cc1ccc(O)c(NC(=O)c2noc(C(C)C)c2[N+](=O)[O-])c1,40.5
23,Cc1ccc(NC(=O)CN(C)C(=O)c2ccc(NS(=O)(=O)c3cccc([N+](=O)[O-])c3)cc2)cc1,11.6
24,O=C(c1cc([N+](=O)[O-])ccc1Cl)N1CCc2ccccc21,1.6

row,Compound,solubility kinetic [µg/mL]
1,CCOc1ccc2[nH]c3ncccc3c(=O)c2c1,3.7
2,COC(=O)Cn1c(Cc2ccccc2)nc2ccccc21,> 42
3,Cc1ccccc1N1CCN(Cc2cc3c(cc2[N+](=O)[O-])OCO3)CC1,3.5
4,CCc1noc(C)c1C(=O)Nc1ccccc1C(C)(C)C,39
5,CC1(C)CCC(=O)C=C1Nc1ccc(F)c(Cl)c1,38.2
6,CCCNC(=O)COC(=O)c1ccc(-c2ccccc2)cc1,1
7,CN(C)/C=C/C(=O)C(F)(F)F,17.9
8,CCCN1CN=C(NS(=O)(=O)c2ccc(C)cc2)NC1,> 44.5
9,N/C(=N\OC(=O)Nc1ccccc1)c1cccc(C(F)(F)F)c1,27.9
10,CN(C(=O)COC(=O)c1ccc2c(c1)OCO2)C1CCCCC1,> 47.9
11,COc1ccc(CNC(=O)C2CCN(C(=O)c3ccccc3)CC2)cc1,> 52.9
12,CCc1ccc(NS(=O)(=O)c2ccc3c(c2)oc(=O)n3C)cc1,2.1
13,Cc1cc(NC(=O)C(C)C)ncc1NC(=O)c1ccco1,> 43.1
14,CN1C(=O)S/C(=C/c2ccc(OCc3cccc(C(=O)O)c3)cc2)C1=O,10.6
15,Cc1cc(NC(=O)C2CC(=O)N(c3ccccc3Cl)C2)no1 (centres undefined),> 48
16,O=C(CN1CCCCC1)Nc1scc2c1c(=O)oc1ccccc12,< 0.4
17,O=C(O)c1ccc(CNC(=O)c2ccc(C(F)(F)F)cc2)cc1,> 48.5
18,CN=C1S/C(=C\c2ccc(Cl)cc2)C(=O)N1C,1.2
19,COc1ccc(C2C(C#N)=C(N)Oc3c2oc(CO)cc3=O)cc1 (centres undefined),> 48.9
20,N#CCCN(Cc1cccs1)C(=O)Nc1ccc(F)cc1,> 45.5
21,Cn1c(O)c(C=NCCCCCCCCCCC(=O)O)c(=O)n(C)c1=O,> 55.1
22,CCc1nc(C)cc2c1sc1ccccc12.Cl,1
23,CC(C)OCCCNC(=O)CN1C(=O)c2cccc3cccc1c23,> 49
24,CN(C)CCn1ccc(O)c(Cc2ccc(Cl)cc2)c1=O,44.8

row,Compound,solubility kinetic [µg/mL]
1,COc1cc2c(cc1OC)CN(Cc1cc(OC)c(O)c(OC)c1)CC2,47.7
2,Cc1cccc(NC(=O)/C(C#N)=C/c2ccccc2O)n1,20.9
3,O=C(COC(=O)c1cnccn1)Nc1ccccc1-c1ccccc1,> 50
4,CCNC(=O)C(=O)Nc1cc2c3c(c1)CCN3C(=O)CC2,> 43.1
5,CN(C)c1ccc(C(=O)OCC(=O)NC2CCCCCC2)cc1,2.8
6,O=C(OCc1ccc(F)cc1)c1cccnc1Cl,21.7
7,CC(C)Sc1nc2c(c(=O)[nH]c(=O)n2C)n1Cc1ccccc1,2.8
8,CC(=O)Nc1ccc(NC(=O)Cn2ccc([N+](=O)[O-])n2)cc1,> 45.5
9,Cc1c(O)c(CN(C)C)cc2c1oc(=O)c1ccccc12,> 42.5
10,CCC(C)c1ccccc1NC(=O)c1cc(C)no1 (centres undefined),> 38.7
11,CCN1CCN(C(=O)/C(=C/c2cccs2)NC(=O)c2ccc(C)c(C)c2)CC1,48.5
12,COc1ccccc1NC1=NC(CO)(CO)CS1,> 40.2
13,O=C(c1cccs1)N1CC=C(c2ccccc2)CC1,11.5
14,CCCC(=O)Nc1nc(CC(=O)OCC)cs1,> 38.4
15,Cc1csc(=O)n1CCC(=O)N(C)Cc1c(F)cccc1Cl,> 51.4
16,COc1ccc(S(=O)(=O)NCc2csc(C)n2)cc1OC,> 49.3
17,COc1cccc2cc(C(=O)N3CCCc4ccccc43)oc12,15.3
18,Cc1nc2ccccc2n1Cc1ccc(Br)cc1,37.8
19,CCc1ccc(CNc2ccc3c(c2)ncn3CC)cc1,37.3
20,O=C(Cc1cccs1)NCc1ccc(Cl)cc1Cl,13.1
21,O=C1CSC(c2cccc(F)c2)N1c1ccccc1 (centres undefined),> 41
22,O=C1Cc2cc(S(=O)(=O)N3CCNCC3)ccc2N1,39.1
23,CCCn1cnc2cc(NCc3ccccc3O)ccc21,28.3
